The source made the active and inactive calls. No cut-off for these calls is given here.
How the values were obtained:
[1] = system: NCI-H1975; assay: Inhibition of cell proliferation in human NCI-H1975 cells xenografted in zebrafish at 1 to 2 uM measured after 48 hrs by confocal microscopy; assay type: functional, cell-based; conditions: dose 1-2 µM
[2] = Developmental toxicity in zebrafish AB zygotes assessed as decrease in hatching rate at 2 to 4 uM treated at 6 hrs post-fertilization measured at 24 to 72 hrs post-fertilization; set-up: species or system Danio rerio; conditions: in vivo, dose lower 2 µM, time lower 18 hrs, dose upper 4 µM, time upper 66 hrs
[3] = Toxicity in zebrafish embryo assessed as damage effect in liver function at 2 uM with replacement of new growth solution daily by fluorescence microscopy relative to control; set-up: species or system Danio rerio; conditions: in vivo
[4] = Toxicity in zebrafish embryo assessed as damage effect in liver development at 1 uM with replacement of new growth solution daily by fluorescence microscopy relative to control; assay type: tissue-based, Danio rerio; conditions: in vivo
[5] = Renal toxicity in zebrafish assessed as increase in Kim1 expression at 2 uM treated for 48 hrs by RT-qPCR analysis; set-up: species or system Danio rerio; conditions: in vivo
[6] = Renal toxicity in fluorescent transgenic zebrafish at 0.5 to 1 uM treated for 48 hrs by fluorescence microscopy; set-up: species or system Danio rerio; conditions: in vivo, dose 0.5-1 µM
[7] = Developmental toxicity in zebrafish AB zygotes assessed as decrease in body length treated at 6 hrs post-fertilization measured at 24 to 72 hrs post-fertilization; set-up: species or system Danio rerio; conditions: in vivo, dose lower 0.25 µM, time lower 18 hrs, dose upper 4 µM, time upper 66 hrs
[8] = organism: Danio rerio; assay: Induction of ROS production in zebrafish at 2 uM measured after 48 hrs by fluorescence microscopy; assay type: functional, organism-based
[9] = system: BEAS-2B; assay: Induction of ROS generation in human BEAS-2B cells at 0.4 uM incubated for 24 hrs by DCFH-DA probe based analysis; assay type: toxicity, cell-based
[10] = Renal toxicity in zebrafish assessed as yolk sac absorption at 2 uM treated at 3 hrs post-fertilization measured at 48 hrs post-compound treatment by FITC staining based microscopy; set-up: species or system Danio rerio; conditions: in vivo
[11] = Renal toxicity in zebrafish assessed as decrease in nephrin expression at 2 uM treated for 48 hrs by RT-qPCR analysis; set-up: species or system Danio rerio; conditions: in vivo
[12] = system: NCI-H1975; assay: Cytotoxicity against human NCI-H1975 cells assessed as cell growth inhibition at >41.15 nM incubated for 48 hrs by MTT assay relative to control; assay type: functional

Row | Structure (SMILES) | inhibition [1] | Activity [2] | Activity [3] [%] | Activity [4] [%] | Activity [5] | Activity [6] | Activity [7] | Activity [8] | Activity [9] | Activity [10] | Activity [11] | inhibition (INH) [12] [%]
1 | CC(C)[C@]12O[C@H]1[C@@H]1O[C@]13[C@]1(O[C@H]1C[C@H]1C4=C(CC[C@@]13C)C(=O)OC4)[C@@H]2OC(=O)CCCCCCCC[n+]1ccc(/C=C/c2c[nH]c3ccccc23)cc1.[Br-] | Active | Toxic | 79.96 | 23.76 | Toxic | Non-Toxic | Dose-Dependent Effect | Active | Toxic | – | – | –
2 | CC(C)[C@]12O[C@H]1[C@@H]1O[C@@]13[C@@]1(C)CCC4=C(COC4=O)[C@@H]1C[C@@H]1O[C@@]13C2=O [TRIPTONIDE] | – | – | – | – | – | – | – | – | – | Toxic | Toxic | <50

Source: ChEMBL document CHEMBL5537157, “Selective Antitumor Effect and Lower Toxicity of Mitochondrion-Targeting Derivatization of Triptolide” (J Med Chem, 2024)
